This is an account of results in patent US20190300892A1, “CONSTRUCTS AND METHODS FOR BIOSYNTHESIS OF GALANTHAMINE” (priority 2014, published 2019).

In one data set the target is T1, NpN4OMT1 (Narcissus aff. pseudonarcissus MK-2014, UniProt A0A077EWA5).
T1 construct: made in house; host or cells: E. coli BL21(DE3) Codon Plus RIL
The class given is biochemical. As to conditions: for enzymatic activity upon addition of divalent cation: cation dependence test, 5 min assays, 4 μM norbelladine, 37° C. The protocol:
Enzyme assays for initial testing of NpN4OMT1 contained 10 μg of pure protein with 200 μM AdoMet, 100 μM norbelladine and 30 mM potassium phosphate buffer pH 8.0 in 100 μl. The assays were incubated for 2 hr at 30° C. The vector control was an E. coli extract purified with TALON in the same way as the methyltransferase protein. For the vector control assay, an equal volume of the pure vector control extract was substituted for the NpN40MT1 protein in the enzyme assay. These assays were quenched by adjusting the pH to 9.5 with two volumes of sodium bicarbonate and extracted with two volumes ethyl acetate two times. After drying, the extracts were re-suspended in the initial mobile phase of the HPLC program. The HPLC separation of the assays was performed using a phenomenex Luna C8(2) 5 m 250×4.6 mm column with solvent A (0.1% formic acid in H2O) and solvent B (acetonitrile). The program started with 10% solvent B and a flow rate of 0.8 ml/min, a linear gradient began at 2 min to 30% at 15 min, 90% at 15.1 min, 90% at 20 min, 10% at 21 min and 10% at 28 min. Injection volume was 20 μl using a Waters auto-sampler. Waters UV detector was set to 277 nm.
After optimization of the NpN4OMT assay, the buffer was changed to […] glycine at pH 8.8, with 5 mM of MgCl2 added and the temperature was increased to 37° C. in 100 μl total reaction volume. When performing kinetic assays, the E. coli enzyme Pfs was added to break down SAH and prevent product inhibition. Papaverine was used as an internal standard.
With the same solvent system as for screening enzyme assays, the HPLC program started with 20% B and a flow rate of 0.8 ml/min, a linear gradient began at 2 min to 25.4% B at 7 min, 90% at 7.2 min, 90% at 9 min, 20% at 9.1 min and 20% at 14 min. A 4000 QTRAP mass spectrometer coupled to the same LC column and time program as used in HPLC was used to collect all compound mass and fragmentation data.
For NpN4OMT norbelladine kinetics an MRM program in positive ion mode was used to monitor the following fragments 260.00 [M+H]^+/138.00 [M−C8H9O]^+• m/z, 260.00 [M+H]^+/121.00 [M−C7H8NO2]^+• m/z, 274.00 [M+H]^+/137.00 [M+H—C8H9O2]^+ m/z, 274.00 [M+H]^+/122.00 [M+H—C8H10NO2]^+ m/z. The fragments with 260.00 [M+H]^+ m/z and 274.00 [M+H]^+ m/z molecular ions were replaced when looking at N-methylnorbelladine for 274.00 [M+H]^+/152.10 [M−C8H9O]^+• m/z, 274.00 [M+H]^+/121.00 [M−C9H12NO2]^+• m/z, 288.00 [M+H]^+/150.10 [M−C8H9O2]^+• m/z and 288.20 [M+H]^+/137.00 [M−C9H12NO]^+• m/z. Papaverine internal standard was monitored with the following fragments 340.40[M+H]^+/324.20 [M−CH3]^+• m/z and 340.40 [M+H]^+/202.10 [M−C8H9O2]^+• m/z. When conducting dopamine kinetics, galanthamine was used as the internal standard and samples were not ethyl acetate extracted prior to LC/MS/MS analysis. To remove protein, two volumes of acetonitrile were added followed by 1 hr at −20° C. and 10 min centrifugation at 16,100×g, 4° C. The supernatant was dried under vacuum and re-suspended in the starting mobile phase before analysis. The HPLC time program was changed to start at 5% solvent B with solution going to waste until 3.9 min, at 5 min start linear gradient to 25% B at […], 90% B at 9.5 min, 90% B at 11 min, 5% B at 11.1 min and 5% B at 16 min. Ions monitored in the MRM were 168.00 [M+H]^+/151.00 [M+H-OH]^+ m/z and 168.00 [M+H]^+/119.00 [M−OH—OCH3]^+• m/z. AdoMet steady state kinetic parameters were determined with norbelladine as the saturated substrate. Product was quantitated using HPLC with the 28 min program used for screening enzyme assays. Product for assays on the additional NpN4OMT variants was detected with this same 28 min program on HPLC.
When conducting kinetic experiments the K, was at least five fold higher than the minimum concentration of substrate and fivefold lower than the maximum concentration of substrate tested.

The next data set deals with T2, CYP96T1 (Narcissus aff. pseudonarcissus MK-2014, UniProt A0A140IL90).
T2 construct: made in house; host or cells: Spodoptera frugiperda Sf9 cells (Baculogold baculovirus, pVL1392)
T2 sequence (A0A140IL90 1-513): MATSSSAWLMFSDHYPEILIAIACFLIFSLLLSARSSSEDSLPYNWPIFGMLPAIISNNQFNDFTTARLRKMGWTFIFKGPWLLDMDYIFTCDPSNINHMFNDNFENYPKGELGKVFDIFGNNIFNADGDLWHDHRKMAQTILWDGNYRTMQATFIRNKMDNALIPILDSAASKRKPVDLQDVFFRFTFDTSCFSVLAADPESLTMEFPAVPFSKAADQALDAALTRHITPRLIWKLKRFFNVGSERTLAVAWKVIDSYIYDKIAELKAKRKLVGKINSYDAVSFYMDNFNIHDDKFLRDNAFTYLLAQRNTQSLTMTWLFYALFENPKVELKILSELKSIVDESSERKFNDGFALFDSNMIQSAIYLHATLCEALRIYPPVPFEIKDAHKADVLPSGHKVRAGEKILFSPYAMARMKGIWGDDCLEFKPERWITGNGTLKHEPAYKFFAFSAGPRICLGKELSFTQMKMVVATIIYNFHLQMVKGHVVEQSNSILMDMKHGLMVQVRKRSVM
The class given is biochemical. As to conditions: for product formation as CYP96T1 substrate: LC-MS/MS. As to the method: Recombinant protein production of NpN4OMT and norbelladine synthase/reductase in 1 L of E. coli and purification with TALON resin followed standard methods. No proteases were added to the protein extract, and desalting was performed with PD-10 columns from GE Healthcare. Protein quantity was determined according to Bradford; purity was monitored by SDS-PAGE. The E. coli cell line containing the hexahistidine-tagged methylthioadenosine/S-adenosylhomocysteine nucleosidase (Pfs) construct from Choi-Rhee and Cronan's work was used to purify Pfs protein. CYP96T1 was co-expressed with cytochrome P450 reductase in Spodoptera frugiperda Sf9 cells using Baculogold baculoviurus (BD Biosciences). Whole cell lysates were used in CYP96T1 enzyme assays.
CYP96T1 assays contained 30 mM KPO4 pH 8.0, 1.25 mM NADPH, 10 μM substrate and 70 μl of virus infected Sf9 cell suspension in 200 μl total volume. The assays were incubated for 2-4 hr at 30° C. 4′-O-metylnorbelladine was used as an initial test compound. Substrate specificity tests were done on 4′-O-methyl-N-methylnorbelladine, norbelladine, N-methylnorbelladine, 3′-O-methylnorbelladine, 3′,4′-O-dimethylnorbelladine, haemanthamine, (S)-coclaurine, (R)-coclaurine and mixed (10aR,4bR)- and (10aS,4bS)-noroxomaritidine. Assays derivatized with sodium borohydride were incubated 2 hr at 30° C. followed by addition of 0.5 volumes 0.5 M sodium borohydride in 0.5 M sodium hydroxide and incubated 30 min at RT. The CYP96T1 assay resolved on a Chiral-CBH column and assays measured with HPLC used fresh CYP96T1 and CPR expressing SF9 cell protein prepared using re-amplified virus. Enzyme assays on all substrates were extracted as previously described and run on a QTRAP 4000 coupled to a IL-20AC XR prominence liquid auto sampler, 20AD XR prominence liquid chromatograph and Phenomenex Luna 5 μm C8(2) 250×4.60 mm column. HPLC gradient and MS settings were as previously described for NpN4OMT. Assay specific MS/MS parameters are presented in
Table 4. Multiple Reaction Monitoring (MRM) parameters for relative quantification of (10aR,4bR)- and (10aS,4bS)-noroxomaritidine, N-demethylnarwedine, narwedine and the two unknown compounds are presented in Table5. For analysis of product chirality, a Chrom Tech, Inc. Chiral-CBH 100×4.0 mm, 5 μM column was used with a 30 min isocratic flow of 2.5% HPLC grade ethanol and 10 mM ammonium acetate with pH adjusted to 7.0 with ammonium hydroxide.

Entries after “also recorded” stand apart in the source; their conditions may differ. Like-named read-outs stand apart in the source and are kept apart here.

T1 sequence (A0A077EWA5 whole entry): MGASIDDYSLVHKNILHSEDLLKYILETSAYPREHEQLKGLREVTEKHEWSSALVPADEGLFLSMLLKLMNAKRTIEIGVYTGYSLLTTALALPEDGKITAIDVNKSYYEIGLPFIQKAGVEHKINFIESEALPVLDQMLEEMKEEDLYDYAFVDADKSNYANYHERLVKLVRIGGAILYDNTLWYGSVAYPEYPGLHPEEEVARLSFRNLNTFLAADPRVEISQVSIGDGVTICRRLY

For `O=Cc1ccc(O)c(O)c1` [3,4-dihydroxybenzaldehyde], the “product formation / activity as NpN4OMT substrate” value (shortened to “product formation / activity”) on NpN4OMT1 (text statement) is reported as “Products were not detected; also recorded: lack of enzymatic activity”.

`COc1ccc(CNCCc2ccc(O)cc2)cc1OC` [3′,4′-O-Dimethylnorbelladine]: the “product formation as CYP96T1 substrate” value on CYP96T1 is on record as “products were not detected”.

For the compound `COc1cc(CNCCc2ccc(O)cc2)ccc1O` [3′-O-Methylnorbelladine], on CYP96T1, the “product formation as CYP96T1 substrate” value is recorded as “products were not detected”.

Regarding `COc1ccc(CN(C)CCc2ccc(O)cc2)cc1O` [4′-O-Methyl-N-methylnorbelladine], the “product formation as CYP96T1 substrate” value on CYP96T1 is on record as “One product is enzymatically produced”.

Broadly, the Km is the substrate concentration at which the rate is half of its maximum. In the case of `COc1ccc(CNCCc2ccc(O)cc2)cc1O` [4′-O-Methylnorbelladine], the “product formation as CYP96T1 substrate” value at CYP96T1 is “C—C phenol coupled”. The kcat came to 0.25 ± 0.0338 s⁻¹ on CYP96T1 (substrate of CYP96T1) and 15.0 ± 2.03 L/min at CYP96T1 (substrate of CYP96T1, production of noroxomaritidine). Further, at CYP96T1 (substrate of CYP96T1, production of (10aR,4bR)- and (10aS,4bS)-noroxomaritidine, Michaelis-Menten with substrate inhibition), the Km stood at 1.13 ± 0.5 µM.

Consider `COc1cc2c(cc1O)[C@@H](Cc1ccc(O)cc1)NCC2` [(R)-Coclaurine], for which the “product formation as CYP96T1 substrate” value at CYP96T1 is “yield products with a mass −2 m/z”.

Turning to `COc1cc2c(cc1O)[C@H](Cc1ccc(O)cc1)NCC2` [(S)-Coclaurine], the “product formation as CYP96T1 substrate” value at CYP96T1 is reported as “yield products with a mass −2 m/z”.

For the compound `CN(CCc1ccc(O)cc1)Cc1ccc(O)c(O)c1` [N-methylnorbelladine], at CYP96T1, the “product formation as CYP96T1 substrate” value is “Product formation is not observed”.

Consider `O=C(O)/C=C/c1ccc(O)c(O)c1` [caffeic acid], for which the “product formation / activity” value on NpN4OMT1 is “Products were not detected”.

For the compound `[Co+2]` [cobalt], the “enzymatic activity upon addition of divalent cation” value on NpN4OMT1 is “enzymatic activity improved”.

Regarding `NCCc1ccc(O)c(O)c1` [dopamine], at NpN4OMT1, the “product formation / activity” value is listed as “served as a substrate, but with less efficiency”. The kcat on NpN4OMT1 (substrate of NpN4OMT1, ± = Standard error, ND = Not detected) was 0.06 ± 0.0025 s⁻¹. The Km on NpN4OMT1 (substrate of NpN4OMT1, ± = Standard error, ND = Not detected, AdoMet determined with norbelladine as the saturated substrate) is 7.3 ± 2.7 µM.

Take `[Mg+2]` [magnesium]: the “enzymatic activity upon addition of divalent cation” value at NpN4OMT1 is “increased fourfold more”.

In the case of `Oc1ccc(CCNCc2ccc(O)c(O)c2)cc1` [norbelladine], the “product formation as CYP96T1 substrate” value at CYP96T1 is recorded as “Product formation is not observed”.

As for `NCCc1ccc(O)cc1` [tyramine], the “product formation / activity” value at NpN4OMT1 (text statement) was “Products were not detected”; on NpN4OMT1 (text statement, listed as Tyramine), “not methylated”.

With `COc1cc(C=O)ccc1O` [vanillin], the “product formation / activity” value at NpN4OMT1 (text statement) is listed as “Products were not detected”.
